# Test results taken from US4921849A, “Injection containing 3-benzoyloxy-1,3,5(10)-estratriene-17-[4-{p-(bis(2-chloroethyl)amino)phe nyl}butanoyloxy)acetate as an active ingredient” (priority 1987, dated 1990).
# Tests used:
# [1] = tested on: Walker 256 carcino sarcoma; assay: Life span of rats bearing Walker 256 carcino sarcoma after injection from the femoral artery; format: in vivo, female Wistar rats; conditions: for elongated life time (T/C=test/control): control = physiological saline; for mean survival days (MST): right femoral artery, 8th or 9th day after transplantation
# Protocol: A predetermined amount (shown in Table 1) of 3-benzoyloxy-1,3,5(10)-estratriene-17β-[4-{p-(bis(2-chloroethyl)amino)phenyl}butanoyloxy]acetate or adriamycin was added to 6.5 g of LIPIODOL® and the mixture was stirred for 15 minutes at 25° C. to obtain a solution as the injection of each active ingredient. Each solution was put into a sterilized vials.
# A walker 256 carcino sarcoma (solid) of about 3 mm square in size was transplanted subcutaneously to the left brachial part and the left femoral part of each of female Wistar rats (the age of 6 weeks and one group consisting of 5 animals) of respective group.
# On the 8th or 9th day after the transplantation, each of the injections prepared in Example 1 was injected into each rat of respective testing group from the right femoral artery by a catheter and physiological saline solution or 6.5 g of LIPIODOL® was injected into each rat of the control group or the LIPIODOL group in the same manner as above.
# After having observed the state of the test animals, the mean survival days (MST) and the elongated life time (T/C=test/control) were calculated.
# [2] = Acute toxicity in rats; format: in vivo
# Protocol: Concerning an acute toxicity (LD50) of the present derivative, even when rats were administered orally with the maximum administrable amount (6,000 mg/kg), no death case has been observed and when rats were injected intraperitoneally in a form of sesame oil solution, its LD50 has been over 3,000 mg/kg. Accordingly, the present derivative is a medicine extremely high in safety. In a mean while, LD50 of LIPIODOL® has been 7,000 mg/kg when it was administered intravenously to rabbits.
# [3] = Solubility in oils; format: physicochemical
# [4] = tested on: estradiol receptor; conditions: cited from earlier work
# [5] = cited from earlier work
# [6] = tested on: cells; conditions: cited from earlier work
# [7] = oral administration; cited from earlier work
SMILES,elongated life time (T/C=test/control) ([1]; 10 mg in 6.5 g of LIPIODOL) [%],mean survival days (MST) ([1]; 10 mg in 6.5 g of LIPIODOL) [days],elongated life time (T/C=test/control) ([1]; 100 mg in 6.5 g of LIPIODOL) [%],mean survival days (MST) ([1]; 100 mg in 6.5 g of LIPIODOL) [days],"death cases (acute toxicity) ([2]; orally, maximum administrable amount 6,000 mg/kg)","LD50 ([2]; rat, in vivo, ip, intraperitoneally, sesame oil solution) [mg/kg]",solubility in ester of iodinated poppy oil fatty acid ([3]; ester of iodinated poppy oil fatty acid),solubility in ordinary oils ([3]; ordinary oils),affinity to the estradiol-receptor [4],stability in vivo [5],accumulation in cancer cells versus normal cells ([5]; in vivo),decomposition/conversion within cells [6],adsorption rate in intestines [7],stability in cells [6]
COc1cccc2c1C(=O)c1c(O)c3c(c(O)c1C2=O)C[C@@](O)(C(=O)CO)C[C@@H]3O[C@H]1C[C@H](N)[C@H](O)[C@H](C)O1 [Adriamycin],140.7,24.5,< 5.7,< 1,–,–,–,–,–,–,–,–,–,–
"C[C@]12CC[C@@H]3c4ccc(OC(=O)c5ccccc5)cc4CC[C@H]3[C@@H]1CC[C@@H]2OC(=O)COC(=O)CCCc1ccc(N(CCCl)CCCl)cc1 [present derivative, 3-benzoyloxy-1,3,5(10)-estratriene-17-[4-{p-(bis(2-chloroethyl)amino)phenyl}-butanoyloxy]acetate]",–,–,234.3,41.0,no death case,> 3000,can be uniformly dissolved in the ester,does not completely dissolve in ordinary oils,scarcely any function as an alkylating agent and any affinity to the estradiol-receptor,relatively stable in vivo,accumulates in larger amount in cancer cells than in normal cells,hydrolyzed by an enzyme,low adsorption rate,–
"C[C@]12CC[C@@H]3c4ccc(O)cc4CC[C@H]3[C@@H]1CC[C@@H]2OC(=O)COC(=O)CCCc1ccc(N(CCCl)CCCl)cc1 [KM-2202, 3-hydroxy-1,3,5(10)-estratriene-17-[4-{p-(bis(2-chloroethyl)amino)phenyl}butanoyloxy]-acetate]",–,–,–,–,–,–,–,–,has an affinity to the estradiol receptor,–,–,decomposed slowly into estradiol and chlorambucil within cells,–,relatively unstable in cells
